Reference: article PMC8397297 (ACS Chemical Neuroscience, 2021)

Legend:
mGAT1 = target: T1, mGAT1 (Mus musculus, UniProt P31648); assay: competitive MS binding assay with NO711 as unlabeled marker (LC-ESI-MS/MS); details: for remaining NO711 binding mGAT1: in the presence of 100 μM inhibitor
T1 construct: expressed in transfected cells; host or cells: HEK-293
How it was run: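 Competitive MS binding with unlabeled NO711 as marker, quantified by LC–ESI-MS/MS. Compounds screened at 100 μM for inhibition of marker binding.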

oxaliplatin-treated mice = assay: oxaliplatin-induced peripheral neuropathy, cold hyperalgesia (cold plate test); format: in vivo, mouse
Procedure: Before the in vivo tests, the test compounds were suspended in 1% Tween 80 (Baxter, Poland). The compounds were then administered intraperitoneally. […] The test compounds were administered only once daily on days 1 and 7 of oxaliplatin- or paclitaxel-induced neuropathy. In STZ-treated mice, test compounds were administered 21 days after STZ injection. Control mice used in oxaliplatin and paclitaxel NP models were injected with an appropriate amount of vehicle (0.9% saline). Oxaliplatin was purchased from Activate Scientific GmbH (Germany). Paclitaxel and STZ were purchased from Sigma-Aldrich (Poland).
For pain studies, oxaliplatin was dissolved in 5% glucose solution (Polfa Kutno, Poland). The dose of oxaliplatin used to induce peripheral neuropathy (10 mg/kg, intraperitoneal injection) was chosen on the basis of previous research[63],[64] and available literature data.[65]
A cold plate apparatus (hot/cold plate, Bioseb, France) set at 2.5 °C was used to assess the effect of treatment on cold hyperalgesia in oxaliplatin-treated mice. The cold plate test was conducted immediately after the von Frey test. Three hours after oxaliplatin administration, the animals were placed on a cold plate apparatus, and predrug latencies to pain reaction (i.e., lifting, biting, shaking of hind paws, jumping, movement deficits, or writhing response) were collected. Finally, the test compounds were injected, and 1 h later, the postdrug latencies to pain reaction were measured.

mGAT3 = target: T2, mGAT3 (Mus musculus, UniProt P31649); assay: [3H]GABA uptake assay in HEK-293 cells stably expressing mGAT3; format: cell-based; details: [3H]GABA uptake; read-out: pIC50 ± SEM mGAT3 (converted)
T2 construct: expressed in transfected cells; host or cells: HEK-293
T2 sequence (P31649 1-602): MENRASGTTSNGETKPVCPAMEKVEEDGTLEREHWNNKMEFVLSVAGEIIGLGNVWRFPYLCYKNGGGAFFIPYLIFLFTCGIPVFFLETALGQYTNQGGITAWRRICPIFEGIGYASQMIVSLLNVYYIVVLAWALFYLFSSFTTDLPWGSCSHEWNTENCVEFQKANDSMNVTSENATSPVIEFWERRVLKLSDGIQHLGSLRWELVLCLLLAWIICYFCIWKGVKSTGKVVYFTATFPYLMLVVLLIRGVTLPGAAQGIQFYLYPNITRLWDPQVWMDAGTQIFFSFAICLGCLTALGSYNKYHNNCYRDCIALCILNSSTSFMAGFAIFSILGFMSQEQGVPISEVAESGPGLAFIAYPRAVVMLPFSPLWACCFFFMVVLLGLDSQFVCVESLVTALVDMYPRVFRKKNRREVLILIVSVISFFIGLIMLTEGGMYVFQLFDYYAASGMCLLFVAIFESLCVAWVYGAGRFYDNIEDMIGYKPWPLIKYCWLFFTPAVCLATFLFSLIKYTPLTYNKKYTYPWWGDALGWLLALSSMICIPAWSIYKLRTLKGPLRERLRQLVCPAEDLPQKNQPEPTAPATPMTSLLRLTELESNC

HEK-293 cells = assay: HEK-293 cytotoxicity assay (MTS); format: cell-based, human; details: for concentration with significant (p < 0.0001) decrease in HEK-293 cell viability: 72 h of incubation; for concentration of observed antiproliferative effects: summary of HepG2 and HEK-293 assays
Procedure: Subsequently, a similar study was performed with the HEK-293 cell line.
Hepatotoxicity and cytotoxicity were estimated according to previously described protocols[62] using the hepatoma HepG2 (ATCC HB-8065) and human embryonic kidney HEK-293 (ATCC CRL1573) cell lines, respectively. In brief, cells were seeded in 96-well plates at a density of 0.7 × 10^4 and cultured at 37 °C in an atmosphere containing 5% CO2. Next, the compounds were added and investigated in quadruplicate at concentrations ranging from 0.1 to 100 μM for 72 h. The antiproliferative drug DX was used as the reference. The CellTiter 96 AQueous nonradioactive cell proliferation assay (MTS) purchased from Promega (Madison, WI, USA) was used for the determination of cell viability. The absorbance at 492 nm was measured using an EnSpire microplate reader (PerkinElmer, Waltham, MA, USA).

mGAT4 = target: T3, mGAT4 (Mus musculus, UniProt P31650); assay: [3H]GABA uptake assay in HEK-293 cells stably expressing mGAT4; format: cell-based; details: [3H]GABA uptake; read-out: pIC50 ± SEM mGAT4 (converted)
T3 construct: expressed in transfected cells; host or cells: HEK-293
T3 sequence (P31650 1-627): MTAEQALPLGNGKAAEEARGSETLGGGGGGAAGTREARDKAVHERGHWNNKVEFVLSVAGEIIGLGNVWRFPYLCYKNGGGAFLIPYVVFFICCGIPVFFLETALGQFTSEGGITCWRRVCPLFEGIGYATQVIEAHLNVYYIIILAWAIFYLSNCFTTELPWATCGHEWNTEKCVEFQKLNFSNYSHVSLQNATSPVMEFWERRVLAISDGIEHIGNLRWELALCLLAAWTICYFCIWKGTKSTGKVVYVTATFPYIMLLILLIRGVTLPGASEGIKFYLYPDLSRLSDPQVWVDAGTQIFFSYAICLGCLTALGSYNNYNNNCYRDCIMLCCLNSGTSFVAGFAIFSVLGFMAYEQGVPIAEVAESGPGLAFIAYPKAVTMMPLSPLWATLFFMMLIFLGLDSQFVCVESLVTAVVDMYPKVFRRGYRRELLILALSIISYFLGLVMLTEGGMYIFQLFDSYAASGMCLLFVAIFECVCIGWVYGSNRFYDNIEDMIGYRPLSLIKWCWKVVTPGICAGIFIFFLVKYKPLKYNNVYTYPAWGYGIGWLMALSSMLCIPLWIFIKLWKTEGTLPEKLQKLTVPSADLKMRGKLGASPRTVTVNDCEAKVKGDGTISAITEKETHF

[1] = early phase of oxaliplatin-induced neuropathy, i.p.

Row | Structure (SMILES) | remaining NO711 binding mGAT1 (mGAT1) | effect on cold hyperalgesia, cold plate test (oxaliplatin-treated mice; [1]) | IC50 (mGAT3) | concentration with significant (p < 0.0001) decrease in HEK-293 cell viability (HEK-293 cells) | concentration of observed antiproliferative effects (HEK-293 cells) | IC50 (mGAT4) | Ki (mGAT1; MS binding assay, read-out: pKi ± SEM mGAT1 (converted)) | safety profile in HEK-293 cells (HEK-293 cells; 72 h, compared with HepG2) | effect on cold hyperalgesia, cold plate test (oxaliplatin-treated mice; early (acute) phase of oxaliplatin-induced neuropathy, 30 mg/kg i.p., 30 mg/kg)
1 | Cc1ccc(CNC(=O)[C@@H](C[C@@H](C)O)N(C)CCC=C2c3ccccc3CCc3ccccc32)cc1 (relative stereo) [Compound 2RS,4RS-39c, 2-((3-(10,11-Dihydro-5H-dibenzo[a,d][7]annulen-5-ylidene)propyl)(methyl)amino)-4-hydroxy-N-(4-methylbenzyl)pentanamide] | 100 μM: 69% | not effective | 6.61 µM | 25 µM | 25 µM | 4.37 µM |  |  | 
2 | CN(CCON=C(c1ccccc1)c1ccccc1)C(CCN)C(=O)NCc1ccccc1Cl (stereo not drawn) [Compound 50a, 4-Amino-N-[(2-chlorophenyl)methyl]-2-[(2-{[(diphenylmethylidene)amino]oxy}ethyl)(methyl)amino]butanamide] |  | not effective | 8.51 µM |  | 1 µM | 20.4 µM | 33.1 µM | comparable safety profile in HEK-293 and HepG2 cells | 
3 | CN(CCC=C1c2ccccc2CCc2ccccc21)C(CO)C(=O)NCc1ccccc1 (stereo not drawn) [Compound 56a, N-Benzyl-2-((3-(10,11-dihydro-5H-dibenzo[a,d][7]annulen-5-ylidene)propyl)(methyl)amino)-3-hydroxypropanamide] | 100 μM: 68% |  | 22.9 µM | 25 µM | 25 µM | 9.12 µM |  |  | reduced cold hyperalgesia in the acute phase
